Data as given in ChEMBL document CHEMBL2311415, “Cytotoxic quassinoids from Ailanthus altissima” (Bioorg Med Chem Lett, 2013).
pIC50: −log10 of the molar value.

Assays:
HepG2 [1] = test: Cytotoxicity against human HepG2 cells measured after 48 hrs by MTT assay; format: functional, cell-based; conditions: HepG2, 48 h
[2] = Cytotoxicity against human Hep3B cells measured after 48 hrs by MTT assay; format: functional, cell-based, Hep 3B2
HepG2 [3] = test: Cytotoxicity against human adriamycin-resistant HepG2 cells measured after 48 hrs by MTT assay; format: functional, cell-based; conditions: HepG2, 48 h

SMILES	pIC50 (HepG2 [1])	pIC50 [2]	pIC50 (HepG2 [3])
CC(=O)O[C@@H]1C(=O)[C@H](C)[C@@H]2CC(=O)O[C@@H]3C[C@H]4[C@H](C)C[C@H](O)C(=O)[C@]4(C)[C@@H]1[C@@]32C	< 4.30	< 4.30	< 4.30
C/C=C(/C)C(=O)O[C@@H]1[C@H]2C(C)=C[C@H](O)[C@@H](O)[C@]2(C)[C@H]2[C@@]3(O)OC[C@@]24[C@@H]1OC(=O)C[C@H]4[C@@H](C)[C@H]3O	4.98	5.61	< 4.30
C=C1[C@@H](O)[C@]2(O)OC[C@@]34[C@H]1[C@@H](OC(=O)[C@](C)(O)CC)C(=O)O[C@@H]3C[C@H]1C(C)=C[C@H](O)[C@@H](O)[C@]1(C)[C@@H]24	5.94	6.01	4.71
C/C=C(/C)C(=O)O[C@@H]1[C@H]2C(C)=CC(=O)[C@@H](O)[C@]2(C)[C@H]2[C@@]3(O)OC[C@@]24[C@@H]1OC(=O)C[C@H]4[C@@H](C)[C@H]3O	6.26	7.30	4.77
C=C1[C@@H](O)[C@@]2(O)OC[C@@]34[C@H]1[C@@H](OC(=O)C(O)(CC)COC(=O)/C(C)=C\C)C(=O)O[C@@H]3C[C@H]1C(C)=CC(=O)[C@@H](O)[C@]1(C)[C@@H]24 (stereo partly specified) [ALTISSINOL A]	6.55	6.43	< 4.30
C=C1[C@@H](O)[C@@]2(O)OC[C@@]34[C@H]1[C@@H](OC(=O)C(C)CC)C(=O)O[C@@H]3C[C@H]1C(C)=C[C@H](O)[C@@H](O)[C@]1(C)[C@@H]24 (stereo partly specified) [ALTISSINOL B]	5.91	5.63	< 4.30
C[C@@H]1C[C@H](O)C(=O)[C@]2(C)[C@H]3[C@H](O)C(=O)[C@H](C)[C@@H]4CC(=O)O[C@H](C[C@@H]12)[C@]34C [AMAROLIDE]	< 4.30	< 4.30	< 4.30
CC1=CC(=O)[C@@H](O)[C@]2(C)[C@H]3[C@@]4(O)OC[C@@]35[C@@H](C[C@@H]12)OC(=O)C[C@H]5[C@@H](C)[C@H]4O [CHAPARRINONE]	5.92	5.66	< 4.30
C[C@H]1[C@H](O)C(=O)[C@@H]2[C@@]3(C)[C@H](O)[C@@H](O)C[C@@H](C)[C@@H]3C[C@H]3OC(=O)C[C@@H]1[C@@]23C [CHAPARROLIDE]	< 4.30	< 4.30	< 4.30
COc1cccc2c1C(=O)c1c(O)c3c(c(O)c1C2=O)C[C@@](O)(C(=O)CO)C[C@@H]3O[C@H]1C[C@H](N)[C@H](O)[C@H](C)O1 [DOXORUBICIN]	–	6.54	4.07
CC[C@](C)(O)C(=O)O[C@H]1C(=O)O[C@@H]2C[C@H]3C(C)=C[C@H](O)[C@@H](O)[C@]3(C)[C@H]3[C@]4(O)OC[C@]32[C@@H]1[C@@H](C)[C@H]4O [GLAUCARUBIN]	4.45	4.63	< 4.30
C=C1[C@H](O)[C@]2(O)OC[C@]34[C@H]2[C@@]2(C)[C@H](O)[C@@H](O)C=C(C)[C@@H]2C[C@H]3OC(=O)C[C@@H]14 [SHINJULACTONE A]	5.33	5.10	< 4.30
CC1=CC(=O)O[C@@H]1[C@@]1(C)C[C@H]2OC(=O)C[C@H]3[C@@H](C)C(=O)C(O)=C1[C@@]23CO [SHINJULACTONE B]	< 4.30	< 4.30	< 4.30
CC1=CC(=O)[C@]2(O)[C@@]3(O)C(=O)[C@@H]4[C@]5(CO)[C@H]6CC(=O)O[C@@H]5C[C@@]1([C@@]42C)[C@]63C [SHINJULACTONE C]	< 4.30	< 4.30	< 4.30
